US11628198B2, “Methods for prevention and treatment of acute renal injury” (Cornell University, priority 2008, dated 2023)

Tests used:
Format in all cases: in vivo, rat
[1] = test system: ARI caused by ureteral obstruction (UUO); assay: 14-day UUO model: immunohistochemistry and TUNEL
Experimental: Sprague-Dawley rats underwent unilateral ureteral ligation (UUO) with 4-0 silk suture through a midline abdominal incision under sterile conditions. Ureteral obstruction was carried out by ligating the left ureter at the end of lower ureter, just above the ureterovesical junction.
SS-31 (1 mg/kg or 3 mg/kg; n=8) was administered intraperitoneally, one day prior to UUO and continuing for 14 days. A separate group of animals was given saline, as a vehicle control (n=16).
Immunohistochemical Analysis: Immunohistochemical staining for macrophages was carried out using a monoclonal antibody to ED-1 (Serotec) as previously described. Macrophages were counted in 10 high-power fields (×400) by two different independent investigators in a blinded fashion. The TUNEL assay was performed as described in Example 1. The presence of fibroblasts was examined using immunohistochemistry, as described in Example 1. The antibody utilized was DAKO #S100-A4 (1:100 dilution). The S100-A4 antigen is also known as FSP-1 (fibroblast specific protein). Antigen was retrieved by incubating cells with Proteinase K for 20 min in an oven. The remaining immunoperoxidase protocol was carried out according to routine procedures. Staining for S100-A4 was found in spindle-shaped interstitial cells, and also in cells which were round, and were identified as inflammatory cells by the pathologist. Only spindle-shaped cells were included in the counts. […] 8-OH dG staining was carried using Proteinase K for antigen retrieval. The antibody used was from the Japan Institute Control of Aging, and was used at a dilution of 1:200-1:500.

[2] = test system: contrast induced nephropathy in diabetic animal model; assay: CIN in diabetic (HFD/STZ) rats with iohexol, Experiment 1
Experimental: Animal model: Impaired renal function caused by diabetes is one of the major predisposing factors for contrast induced nephropathy (McCullough, P et al., J. Am. College of Cardiology, 2008, 51, 1419-1428). In this experiment, a total of 57 SD rats were fed with high fat diet for 6 weeks, followed by the injection with low dose streptozotocin (30 mg/kg). After 9 more weeks, the blood glucose, scrum creatinine and Cystatin C was measured. Based on the following selection criteria: Scr>250 μM, Cystatin C>750 ng/ml and blood glucose>=[…], 20 rats were selected to proceed with the contrast induced nephropathy study.
The animals were divided into 2 groups. Group 1 rats were fed administered iohexol and SS-31; Group 2 rats were administered iohexol and a control vehicle. On day 1, serum samples were collected from the rats in each group and total protein in urine was measured using a Bradford assay. On days 2 and 3, 3 mg/kg SS-31 (Group 1) or a vehicle (Group 2) was administered s.c. 30 min prior to the dye injection (6 mL/kg i.v. tail vein). SS-31 (Group 1) or PBS (Group 2) administration was repeated at both 2 h and 24 h post-dye administration. Serum and urine samples were collected at days 4 and 5. The rats were euthaniszed on day 5 to harvest kidneys and vital organs. Samples were analyzed by students t-test and differences were considered significant at p<0.05.
Renal function: Renal function was assessed by determining serum and urinary creatinine using Jiancheng Cr kit (Nanjing, P.R.C) at baseline, 48 h and 72 h following dye administration. The creatinine clearance was calculated based on the Scr, Ucr and Urinary volume. Urinary protein concentration was determined by Bradford Protein Assay kit (Sigma, St. Louis, Mo.). The Cystatin C was measured Westang Rat Cystatin C kit (Shanghai, P.R.C.)

[3] = test system: CIN in glycerol-induced rhabdomyolysis animal model; assay: CIN in glycerol-induced rhabdomyolysis model, Experiment 1
Experimental: In this model, SD rats with body weight of 300-400 g were dehydrated for 24 h followed by i.m. injection of 25% glycerol solution (v/v) at the dose of 10 ml/kg. Twenty-four hours (24 h) later, the rats were grouped and subjected to a contrast induced nephropathy study protocol as detailed in FIG. 20. The effects of SS-31 on ARI can be examined by comparing the renal functions in animals from group C with those from group B. Samples were analyzed by students t-test and differences were considered significant at p<0.05.
Renal function: Renal function was assessed by determining serum and urinary creatinine using Jiancheng Cr kit (Nanjing, P.R.C) at baseline, 24 h after dehydration and 48 h post the contrast dye administration. The creatinine clearance was calculated based on the Scr, Ucr and urinary volume. Urinary microalbumin concentration was determined by a competition ELISA assay.

ARI caused by cisplatin = assay: Cisplatin-induced ARI model
Experimental: Sprague-Dawley rats (350-400 g) were given a single dose of cisplatin (7 mg/kg) intraperitoneally on Day 1. One group of rats (n=8) received one dose of SS-31 (3 mg/kg) subcutaneously just prior to cisplatin administration, and repeated once daily for 3 more days. A second group of rats (n=8) […] received an equal volume of saline on the day of cisplatin administration and for 3 more days after.
Experimental Protocol: Rats had free access to tap water and standard rat chow prior to cisplatin administration. Control blood samples were obtained from the tail vein before cisplatin administration. Saline or SS-31 (dissolved in saline) was administered to the rats subcutaneously prior to cisplatin injection. Cisplatin (dissolved in saline) was administered at a dose of 7 mg/kg intraperitoneally. All rats then received either saline or SS-31 (3 mg/kg) daily for 3 days. Rat were placed in metabolic cages for the last 24 hours for urine collection. At the end of this period, a blood sample was withdrawn from the tail vein. After this, the animals were anesthetized, kidneys were removed, and the animals euthanized.
Renal function: Renal function was assessed by blood urea nitrogen (BUN), serum creatinine, urine creatinine, and urine protein (Beckman ALX Chemical Analyzer). GFR was estimated from creatinine clearance which was determined from urinary creatinine, urine flow rate, and serum creatinine.
Renal Histology: Kidneys were fixed in 10% neutral-buffered formalin and embedded in paraffin wax. Three micron sections were stained with periodic acid-Schiff (PAS) and analyzed by light microscopy.

[4] = 3 days after cisplatin, 3 mg/kg s.c. daily

Q: For D-Arg-2′6′Dmt-Lys-Phe-NH2 [SS-31], which “fibroblast infiltration (FSP-1) in the OK” value ([1]; 1 mg/kg) is on record?
A: 43.4 % of control

Q: What about the “tubular apoptosis (TUNEL)” value ([1]; 1 mg/kg) of the same substance?
A: 5.1±0.5 cells per HPF

Q: And the “tubular proliferation (PCNA), increase” value ([1]; 1 mg/kg)?
A: 2 fold

Q: And the “fibroblast infiltration (FSP-1) in the OK” value ([1]; 3 mg/kg)?
A: 28.0 % of the untreated OK

Q: And the “renal tubular apoptosis (TUNEL)” value ([1]; 3 mg/kg)?
A: 3.0±0.3 apoptotic cells/HPF

Q: What about the “tubular proliferation (PCNA), increase” value ([1]; 3 mg/kg) of the same substance?
A: 3.5 fold

Q: What about the “macrophage infiltration into the OK (ED-1)” value ([1]; 1 and 3 mg/kg) of the same substance?
A: significantly decreased macrophage infiltration

Q: What about the “8-OH dG positive cells/HPF” value ([1]; obstructed kidney) of the same substance?
A: significantly reduced

Q: And the “Cystatin C” value ([2]; Baseline)?
A: 708.6 ± 51.3 ng/mL

Q: And the GFR ([2]; Baseline)?
A: 140.0 ± 11.1 μl/min/100 g

Q: What about the Scr ([2]; Baseline) of the same substance?
A: 305.7 ± 15.1 µmol/L

Q: And the U protein ([2]; Baseline)?
A: 4.83 ± 1.03 mg/4 h

Q: And the U vol ([2]; Baseline)?
A: 15.4 ± 2.6 mL

Q: And the Ucr ([2]; Baseline)?
A: 3187.0 ± 196.9 µmol/L

Q: And the “Cystatin C” value ([2]; T1 (48 h post dye))?
A: 1008.1 ± 46.4 ng/mL

Q: And the GFR ([2]; T1 (48 h post dye))?
A: 149.3 ± 15.6 μl/min/100 g

Q: What about the Scr ([2]; T1 (48 h post dye)) of the same substance?
A: 285.4 ± 12.0 µmol/L

Q: What about the U protein ([2]; T1 (48 h post dye)) of the same substance?
A: 4.71 ± 0.60 mg/4 h

Q: What about the U vol ([2]; T1 (48 h post dye)) of the same substance?
A: 17.4 ± 1.6 mL

Q: What about the Ucr ([2]; T1 (48 h post dye)) of the same substance?
A: 2816 ± 163.6 µmol/L

Q: What about the “Cystatin C” value ([2]; T2 (72 h post dye)) of the same substance?
A: 1303.6 ± 147.1 ng/mL

Q: What about the GFR ([2]; T2 (72 h post dye)) of the same substance?
A: 162.7 ± 18.7 μl/min/100 g

Q: And the Scr ([2]; T2 (72 h post dye))?
A: 295.7 ± 20.6 µmol/L

Q: And the U protein ([2]; T2 (72 h post dye))?
A: 3.59 ± 1.0 mg/4 h

Q: What about the U vol ([2]; T2 (72 h post dye)) of the same substance?
A: 20.5 ± 2.3 mL

Q: And the Ucr ([2]; T2 (72 h post dye))?
A: 2675.4 ± 100.8 µmol/L

Q: What about the urinary microalbumin level ([3]; T0, after 24 h dehydration, no peptide treatment at this time point) of the same substance?
A: 757.7±462.9 μg/24 h

Q: What about the total albuminuria ([3]; T2, compared to the vehicle treated group) of the same substance?
A: decreased significantly

Q: What about the “PAS staining of kidney” value ([3]; glycerin, dye) of the same substance?
A: intact brush borders, normal glomeruli and minimum protein cast in the tubular cells

Q: What about the “rats with no change in serum creatinine (<0.4 mg/dl)” value (ARI caused by cisplatin; 3 days after cisplatin) of the same substance?
A: 5 out of 8

Q: And the BUN (ARI caused by cisplatin; [4])?
A: 29.3 ± 25 mg/dL

Q: And the Kidney weight (ARI caused by cisplatin; [4])?
A: 1.6 ± 0.2 g

Q: And the body weight (ARI caused by cisplatin; [4])?
A: 384 ± 28 g

Q: And the serum creatinine (ARI caused by cisplatin; [4])?
A: 0.8 ± 0.73 mg/dL

Q: What about the BUN (ARI caused by cisplatin; before cisplatin treatment) of the same substance?
A: 15.5 ± 1.7 mg/dL

Q: What about the body weight (ARI caused by cisplatin; before cisplatin treatment) of the same substance?
A: 376.9 ± 5.2 g

Q: What about the serum creatinine (ARI caused by cisplatin; before cisplatin treatment) of the same substance?
A: 0.4 ± 0.09 mg/dL
